Results as given in PubChem BioAssay AID248 (DTP/NCI, 2004).
Several values for one entry are separate records, joined by “and”; a condition that tells them apart may be missing. Equal values may be shown once. Toxic doses and inconclusive results are not listed. Rule as the data show it: active = T/C of 150% or more; inactive = T/C below 125%.

Tested on: L1210 leukemia ip in BDF1 mice, survival T/C
Experiment: NCI In Vivo Anticancer Drug Screen. Data for tumor model L1210 Leukemia (intraperitoneal) in B6D2F1 (BDF1) mice
Details: endpoint: mean survival time, higher = longer survival
Summary of the method: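 In this screen, tumor-bearing mice given compound are compared to those given vehicle, and their survival values are reported as a treated-to-control quotient.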

[1] = dose: 75.0 mg/kg/injection, schedule: Q01DX001 (ip), vehicle: saline
[2] = dose: 100.0 mg/kg/injection, schedule: Q04DX003 (ip), vehicle: saline
[3] = dose: 200.0 mg/kg/injection, schedule: Q04DX003 (ip), vehicle: saline
[4] = dose: 400.0 mg/kg/injection, schedule: Q04DX003 (ip), vehicle: saline
[5] = dose: 100.0 mg/kg/injection, schedule: Q01DX009 (ip), vehicle: Klucel (hydroxypropylcellulose) (HPC)
[6] = dose: 200.0 mg/kg/injection, schedule: Q01DX009 (ip), vehicle: Klucel (hydroxypropylcellulose) (HPC)
[7] = dose: 400.0 mg/kg/injection, schedule: Q01DX009 (ip), vehicle: Klucel (hydroxypropylcellulose) (HPC)
[8] = dose: 100.0 mg/kg/injection, schedule: Q04DX002 (ip), vehicle: saline with Tween-80
[9] = dose: 200.0 mg/kg/injection, schedule: Q04DX002 (ip), vehicle: saline with Tween-80
[10] = dose: 400.0 mg/kg/injection, schedule: Q04DX002 (ip), vehicle: saline with Tween-80
[11] = dose: 100.0 mg/kg/injection, schedule: Q04DX003 (ip), vehicle: saline with Tween-80
[12] = dose: 200.0 mg/kg/injection, schedule: Q04DX003 (ip), vehicle: saline with Tween-80
[13] = dose: 400.0 mg/kg/injection, schedule: Q04DX003 (ip), vehicle: saline with Tween-80
[14] = dose: 50.0 mg/kg/injection, schedule: Q01DX001 (ip), vehicle: carboxymethylcellulose (CMC)
[15] = dose: 100.0 mg/kg/injection, schedule: Q01DX009 (ip), vehicle: saline with Tween-80
[16] = dose: 200.0 mg/kg/injection, schedule: Q01DX009 (ip), vehicle: saline with Tween-80
[17] = dose: 50.0 mg/kg/injection, schedule: Q01DX009 (ip), vehicle: Klucel (hydroxypropylcellulose) (HPC)

Measured: T/C

CN1C2CSCC1CC(O)C2 (stereo not drawn)
inactive: dose: 37.0 mg/kg/injection, schedule: Q04DX003 (ip), vehicle: other 101 % of control | dose: 37.5 mg/kg/injection, schedule: Q01DX009 (ip), vehicle: other 105 % of control | dose: 75.0 mg/kg/injection, schedule: Q01DX001 (ip), vehicle: other 102 % of control | [1] 103 % of control | dose: 75.0 mg/kg/injection, schedule: Q01DX009 (ip), vehicle: other 104 % of control | dose: 75.0 mg/kg/injection, schedule: Q04DX003 (ip), vehicle: other 98 % of control | dose: 150.0 mg/kg/injection, schedule: Q01DX001 (ip), vehicle: other 93 % of control | dose: 150.0 mg/kg/injection, schedule: Q01DX009 (ip), vehicle: other 104 % of control | dose: 150.0 mg/kg/injection, schedule: Q04DX003 (ip), vehicle: other 101 % of control

OCCOCc1ccccc1
inactive: [2] 104 % of control | [3] 98 % of control | [4] 100 % of control

O=C(Nc1ccccc1F)Oc1ccc(OCc2ccccc2)cc1
inactive: [5] 101 % of control | [6] 101 % of control | [7] 101 % of control

O=S(=O)(c1ccc(N=NN2CCCC2)cc1)N(CCCl)CCCl
inactive: [8] 101 % of control | [9] 101 % of control | [10] 108 % of control

Cc1ccc(N=C(N)NC#N)cc1
inactive: [11] 89 % of control | [12] 86 % of control | [13] 88 % of control

CC(=O)OC(OC(C)=O)c1ccc([N+](=O)[O-])c([N+](=O)[O-])c1
inactive: dose: 12.5 mg/kg/injection, schedule: Q01DX001 (ip), vehicle: carboxymethylcellulose (CMC) 97 % of control | dose: 25.0 mg/kg/injection, schedule: Q01DX001 (ip), vehicle: carboxymethylcellulose (CMC) 97 % of control | [14] 94 % of control

O=C(CC(=O)NO)NO
inactive: [8] 103 % of control | dose: 100.0 mg/kg/injection, schedule: Q04DX002 (ip), vehicle: saline 97 % of control | [9] 97 % of control | dose: 200.0 mg/kg/injection, schedule: Q04DX002 (ip), vehicle: saline 100 % of control | [10] 97 % of control | dose: 400.0 mg/kg/injection, schedule: Q04DX002 (ip), vehicle: saline 100 % of control

CCCCCCCCN(C)/N=N/c1nc[nH]c1C(N)=O
inactive: [5] 113 % of control

CCOC1(C)OC2CCCCC2O1 (stereo not drawn)
inactive: dose: 50.0 mg/kg/injection, schedule: Q01DX009 (ip), vehicle: saline with Tween-80 92 % of control | [15] 92 % of control | [16] 92 % of control

CC1OC(O[C@H]2C[C@](O)(C(C)O)Cc3c(O)c4c(c(O)c32)C(=O)c2c(O)cccc2C4=O)CC(NC=O)C1O (stereo partly drawn)
inactive: dose: 0.05 mg/kg/injection, schedule: Q01DX009 (ip), vehicle: saline 116 % of control | dose: 0.1 mg/kg/injection, schedule: Q01DX001 (ip), vehicle: saline 105 % of control | dose: 0.1 mg/kg/injection, schedule: Q03DX003 (ip), vehicle: saline 112 % of control | dose: 0.2 mg/kg/injection, schedule: Q01DX001 (ip), vehicle: saline 116 % of control | dose: 0.2 mg/kg/injection, schedule: Q03DX003 (ip), vehicle: saline 119 % of control | dose: 0.8 mg/kg/injection, schedule: Q01DX009 (ip), vehicle: saline 119 % of control

Cn1cnc([N+](=O)[O-])c1[Se]c1ncnc2nc[nH]c12
inactive: dose: 12.5 mg/kg/injection, schedule: Q01DX005 (ip), vehicle: other 89 % of control | dose: 50.0 mg/kg/injection, schedule: Q01DX005 (ip), vehicle: other 87 % of control

CC=C=[CH][Sn]([CH2]CC)([CH2]CC)[CH2]CC
inactive: [1] 91 % of control

Cc1[nH][nH]c(=O)c1N=Nc1ccccc1
inactive: [17] 94 % of control | [5] 98 % of control | [6] 98 % of control

CC1(C(=O)O)CCC2(C)CCC3(C)C(=CC(=O)C4C5(C)CCC(OC6OC(C(=O)O)C(O)C(O)C6OC6OC(C(=O)O)C(O)C(O)C6O)C(C)(C)C5CCC43C)C2C1 (stereo not drawn)
inactive: dose: 50.0 mg/kg/injection, schedule: Q01DX009 (ip), vehicle: saline 94 % of control | dose: 100.0 mg/kg/injection, schedule: Q01DX009 (ip), vehicle: saline 91 % of control and 107 % of control and 100 % of control | [2] 100 % of control | dose: 200.0 mg/kg/injection, schedule: Q01DX009 (ip), vehicle: saline 91 % of control and 90 % of control and 94 % of control | [3] 105 % of control | dose: 400.0 mg/kg/injection, schedule: Q01DX009 (ip), vehicle: saline 98 % of control and 93 % of control | [4] 103 % of control

CC(NC(=O)OCc1ccccc1)C(=O)O (stereo not drawn)
inactive: [5] 97 % of control | dose: 100.0 mg/kg/injection, schedule: Q04DX002 (ip), vehicle: Klucel (hydroxypropylcellulose) (HPC) 95 % of control | dose: 100.0 mg/kg/injection, schedule: Q04DX003 (ip), vehicle: Klucel (hydroxypropylcellulose) (HPC) 100 % of control | [6] 90 % of control | dose: 200.0 mg/kg/injection, schedule: Q04DX002 (ip), vehicle: Klucel (hydroxypropylcellulose) (HPC) 94 % of control | dose: 200.0 mg/kg/injection, schedule: Q04DX003 (ip), vehicle: Klucel (hydroxypropylcellulose) (HPC) 100 % of control | [7] 97 % of control | dose: 400.0 mg/kg/injection, schedule: Q04DX002 (ip), vehicle: Klucel (hydroxypropylcellulose) (HPC) 97 % of control | dose: 400.0 mg/kg/injection, schedule: Q04DX003 (ip), vehicle: Klucel (hydroxypropylcellulose) (HPC) 95 % of control

CCCCCCCC/C=C\CCCCCCCC(=O)OCCCCCCCCCCC
inactive: dose: 100.0 mg/kg/injection, schedule: Q01DX009 (ip), vehicle: other 93 % of control | dose: 200.0 mg/kg/injection, schedule: Q01DX009 (ip), vehicle: other 94 % of control | dose: 400.0 mg/kg/injection, schedule: Q01DX009 (ip), vehicle: other 100 % of control

O=C(Nc1ccc(F)cc1)Nc1cccc(Cl)c1
inactive: [14] 101 % of control | dose: 100.0 mg/kg/injection, schedule: Q01DX001 (ip), vehicle: carboxymethylcellulose (CMC) 101 % of control | dose: 200.0 mg/kg/injection, schedule: Q01DX001 (ip), vehicle: carboxymethylcellulose (CMC) 93 % of control | dose: 400.0 mg/kg/injection, schedule: Q01DX001 (ip), vehicle: carboxymethylcellulose (CMC) 106 % of control

CC1=CCCCC1O (stereo not drawn)
inactive: [8] 93 % of control | [9] 96 % of control | [10] 93 % of control

CCNC(Cc1ccccc1)c1ccco1 (stereo not drawn)
inactive: [17] 109 % of control | [5] 104 % of control

COC1OC(C[N+](=O)[O-])C(OC(C)=O)C(OC(C)=O)C1OC(C)=O (stereo not drawn)
inactive: [8] 102 % of control | [9] 109 % of control | [10] 95 % of control

O=C(/C=C/c1ccccc1)c1cccc(Br)c1
inactive: [15] 106 % of control | [11] 97 % of control | [16] 91 % of control | [12] 96 % of control | dose: 400.0 mg/kg/injection, schedule: Q01DX009 (ip), vehicle: saline with Tween-80 96 % of control | [13] 96 % of control
